In patent publication US20240299435A1, “COMPOSITIONS CONTAINING ADENOSINE TRIPHOSPHATE (ATP) AND METHODS OF USE FOR COGNITIVE FUNCTION” (priority 2021, published 2024):

Experiments:
[1] = Dynavision D2 Mode A (proactive) visuomotor reaction time task before and after a 3-minute all-out cycling test (3 MT); assay type: in vivo, human; settings: at 60 P; p=0.028
Experimental: (§1) This study followed a double-blind, randomized cross-over design. Participants were randomized to either PeakATP or Placebo and consumed their assigned supplement for a period of 14-days. Following supplementation, participants reported back to the lab within 24-hours for the first of two experimental trials, which occurred in a randomized, counterbalanced cross-over fashion. During experimental trial 1 (T1), participants ingested an acute dose of their assigned supplement 30 minutes before completing pre-testing assessments (Dynavision D2) followed by a 3-minute all-out high-intensity effort (3 MT) on a cycle ergometer. […]
(§2) A convenience sample of healthy, recreationally active individuals were recruited. […] To be included in this study, participants were required to be healthy and ready for activity as determined by physical activity readiness questionnaire (Par-Q+) and Medical History questionnaire (MHQ), be classified as recreationally active (≥150 minutes exercise per week) and not be taking and be willing to abstain from creatine or beta-alanine supplementation or be willing to complete a 4-week wash-out period prior to enrolling if taking creatine or beta-alanine and be willing to abstain from supplementing with either for the duration of the study. […]
(§3) Reaction time was assessed using the Dynavision D2 visuomotor training device. […]

[2] = Dynavision D2 Mode B (reactive) visuomotor reaction time task with cognitive stressor before and after a 3-minute all-out cycling test (3 MT); assay type: in vivo, human
Experimental: as §1, §2, §3

[3] = 225 mg per day enteric-coated ATP for 15 days; cited from earlier work
[4] = 400 mg per day ATP for 15 days; cited from earlier work

Nc1ncnc2c1ncn2[C@@H]1O[C@H](COP(=O)(O)OP(=O)(O)OP(=O)(O)O)[C@@H](O)[C@H]1O [ATP, adenosine-5′-triphosphate]
Mode A number of hits compared to placebo [1]: significantly greater
Mode B avgRT compared to PRE ([2]; at IP (p=0.015) and 60 P (p=0.001)): significantly faster
Mode B avgRT compared to placebo ([2]; at any time point, p's>0.05): not significantly different
total bench press lifting volume and within-group set-one repetitions to failure [3]: increased
minimum peak torque in set two of a knee extensor bout [4]: increased
